Assays:
[1] = target: T1, Mep2 (ScMep2) (Saccharomyces cerevisiae, UniProt P41948); type: cell-based; conditions: 3 mM ammonium; pH 5.5; labelled compound
T1 construct: untagged full-length Mep2 in pOO2, cRNA-injected Xenopus oocytes; family adopts a trimeric fold

[2] = substrate: N; assay: cells, lysate or membranes; conditions: -100 mV (voltage-dependent), pH 5.5, NH4Cl

T1 sequence (P41948 whole entry): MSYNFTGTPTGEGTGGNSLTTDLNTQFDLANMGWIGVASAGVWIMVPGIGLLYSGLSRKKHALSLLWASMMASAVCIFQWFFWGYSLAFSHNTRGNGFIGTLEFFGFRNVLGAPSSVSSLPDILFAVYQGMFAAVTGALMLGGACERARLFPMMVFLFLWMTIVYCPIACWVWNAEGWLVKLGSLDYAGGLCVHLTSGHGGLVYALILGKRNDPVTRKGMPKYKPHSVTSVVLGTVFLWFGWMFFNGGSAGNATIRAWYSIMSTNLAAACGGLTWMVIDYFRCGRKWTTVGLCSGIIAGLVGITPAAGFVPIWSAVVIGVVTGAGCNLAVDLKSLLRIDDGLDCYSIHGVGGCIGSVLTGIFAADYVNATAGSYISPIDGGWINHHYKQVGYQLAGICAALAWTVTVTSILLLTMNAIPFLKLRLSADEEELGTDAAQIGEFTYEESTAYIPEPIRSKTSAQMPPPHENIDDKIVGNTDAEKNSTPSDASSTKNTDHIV

Row | Molecule | 15N-ammonium uptake into Xenopus oocytes, isotope ratio mass spectrometry [1] | Km [2]
1 | N [ammonium] | Mep2 and its Mep2^S457D variant were functional in oocytes, enabling substrate transport | –
2 | Mep1 (ScMep1) (Saccharomyces cerevisiae S288C) (protein) MESRTTGPLTTETYDGPTVAFMILGAALVFFMVPGLGFLYSGLARRKSALALIWVVLMATLVGILQWYFWGYSLAFSKSAPNNKFIGNLDSFGFRNVYGKKFDEDAYPELAYATFQMMFSCVNLSIIAGATAERGRLLPHMVFLFILATIGYCPVTYWIWSPGGWAYQWGVLDWAGGGNIEILSAVSGFVYSWFLGKRNEKLLINFRPHNVSLVTLGTSILWFGWLLFNSASSLSPNLRSVYAFMNTCLSAITGGMTWCLLDYRSEKKWSTVGLCSGIISGLVAATPSSGCITLYGSLIQGIVAGVVCNFATKLKYYAKVDDAMDILAEHGVAGVIGLIFNALFGADWVIGMDGTTEHEGGWVTHNYKQMYKQIAYIAASIGYTAAVTAIICFVLGYIPGMRLRISEEAEEAGMDEDQIGEFAYDYVEVRRDYYLWGVDEDSQRSDVNHRVNNAHLAAERSSSGTNSSSDGNGEMIQSEKILPIHQEDPANR | – | 258 µM

From PMC7048316, “Yeast filamentation signaling is connected to a specific substrate translocation mechanism of the Mep2 transceptor” (PLoS Genetics, 2020)
